From patent US20060167020A1, “Pyrazolopyrimidines as kinase inhibitors” (priority 2002, published 2006)
Counter-ions that a name gives are not always drawn.

The compounds below were run against GSK-3β (Homo sapiens, UniProt P49841) (assay: GSK3 kinase scintillation proximity assay (phosphorylation of biotinylated glycogen synthase peptide)). Conditions: 20 nM kinase, 2.5 uM ATP, 2.8 uM peptide substrate, 40 minutes at room temperature; pIC50 = -log IC50 in Molar.
Format: biochemical
Source text: The phosphorylated biotinylated peptide is then captured onto streptavidin coated scintillation proximity assay (SPA) beads from Amersham Technology, where the signal from the ^33P is amplified via the scintillant contained in the beads.
GSK-3β is commercially available or may be cloned and expressed in E coli using standard techniques to produce soluble, active protein. The production of active protein involves purification in two steps using Metal Chelate and Ion Exchange Chromatography. Protein eluting from Ion Exchange provides >90% pure product that may then be concentrated for use in high throughput screening.
The kinase was assayed at a concentration of 20 nM final in 100 mM HEPES, pH 7.2 containing 10 mM magnesium chloride, 0.1 mg/mL bovine serum albumin, 1 mM dithiothreitol, 0.3 mg/mL heparin, 2.8 uM peptide substrate, 2.5 uM ATP, and 0.2 uCi/well γ^33P]-ATP. After 40 minutes incubation at room temperature, the reaction was stopped by addition of 100 mM EDTA and […] in 100 mM HEPES, pH7.2 followed by an additional solution of diluted Streptavidin coated SPA beads in PBS, pH 7.2 to give a final concentration of 0.25 mg of beads per assay well in a 96-well microtiter plate.
10 mM stock solutions of the compounds of the invention in 100% DMSO are generated as a first step in the screening process. The second step involves the creation of dose response plates where these compounds are diluted 10-fold in 100% DMSO to 1 mM concentrations and subsequently serially diluted 3-fold in 100% DMSO across the plate by automated liquid handling such that the final top concentration of inhibitor is 0.033 mM in the 30 uL kinase assay. The third step involves the creation of the assay plates. This is achieved by transferring 1 uL of the compounds to assay plates by automated liquid handling. The fourth step is to perform the assay as described and count the resulting plates in the Packard TopCount NXT microplate scintillation and luminescence counter.
The final step is data acquisition and analysis where IC50 values are generated for each compound by normalizing curve data to the equation 100*(U1−C2)/(C1−C2) (where U1 is the cpm value, C2 is the background, and C1 is the maximum number of counts), then fitting the normalized data to the equation y=Vmax*(1−(x/(K+x))). The IC50 values were converted to pIC50 values, i.e., −log IC50 in Molar concentration. The data is expressed below in Table 1.

Chain of GSK-3β (P49841 whole entry, species assumed): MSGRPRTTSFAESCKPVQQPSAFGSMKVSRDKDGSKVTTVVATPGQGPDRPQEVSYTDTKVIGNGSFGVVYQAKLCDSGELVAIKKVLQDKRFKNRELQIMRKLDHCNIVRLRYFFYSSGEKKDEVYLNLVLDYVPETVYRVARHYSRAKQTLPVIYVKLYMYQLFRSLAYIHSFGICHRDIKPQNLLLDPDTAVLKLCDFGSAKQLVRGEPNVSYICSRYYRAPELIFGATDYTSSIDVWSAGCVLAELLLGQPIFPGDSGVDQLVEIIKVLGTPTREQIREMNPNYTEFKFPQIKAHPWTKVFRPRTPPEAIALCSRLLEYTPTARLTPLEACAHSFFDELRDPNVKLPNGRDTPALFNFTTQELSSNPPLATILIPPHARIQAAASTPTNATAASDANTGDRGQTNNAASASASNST

| IC50 | Compound |
| --- | --- |
| < 100 nM | COc1cccc(-n2ncc3c(N/N=C/c4ccc(C(=O)NCCN(C)C)cc4)ncnc32)n1 [Example 10, N[2-(Dimethylamino)ethyl]-4-((E)-{[1-(6-methoxypyridin-2-yl)-1H-pyrazolo[3,4-d]pyrimidin-4-yl]hydrazono}methyl)benzamide] |
| 1000 to 10000 nM | C(=N\Nc1ncnc2c1cnn2-c1ccccn1)/c1ccncc1 [Example 14, Isonicotinaldehyde (1-pyridin-2-yl-1H-pyrazolo[3,4-d]pyrimidin-4-yl)hydrazone] |
| < 100 nM | CN(C)CCCNC(=O)c1ccc(/C=N/Nc2ncnc3c2cnn3-c2cccc3[nH]cnc23)cc1 [Example 32, 4-((E)-{[1-(1H-benzimidazol-4-yl)-1H-pyrazolo[3,4-d]pyrimidin-4-yl]hydrazono}methyl)-N-[3-(dimethylamino)propyl]benzamide] |
| 100 to 1000 nM | COc1cccc(-n2ncc3c(N/N=C/c4ccc(C(=O)O)cc4)ncnc32)n1 [Example 8] |
| < 100 nM | COc1cccc(-n2ncc3c(N/N=C/c4ccc(C(=O)NCCCN(C)C)cc4)ncnc32)n1 [Example 11, N-[3-(Dimethylamino)propyl]-4-((E)-{[1-(6-methoxypyridin-2-yl)-1H-pyrazolo[3,4-a]pyrimidin-4-yl]hydrazono}methyl)benzamide] |
| 100 to 1000 nM | C(=NNc1ncnc2c1cnn2-c1nccs1)c1cccnc1 [Example 23, Nicotinaldehyde [1-(1,3-thiazol-2-yl)-1H-pyrazolo[3,4-d]pyrimidin-4-yl]hydrazone] |
| 1000 to 10000 nM | Nc1ccc(/C=N/Nc2ncnc3c2cnn3-c2ccccn2)cn1 [Example 17, 6-Aminonicotinaldehyde (1-pyridin-2-yl-1H-pyrazolo[3,4-d]pyrimidin-4-yl)hydrazone trifluoroacetate] |
| 100 to 1000 nM | COc1cccc(-n2ncc3c(N/N=C/c4ccnc(Cl)c4)ncnc32)n1 [Example 4, 2-Chloroisonicotin aldehyde [1-(6-methoxypyridin-2-yl)-1H-pyrazolo[3,4-d]pyrimidin-4-yl]hydrazone] |
| 1000 to 10000 nM | O=C(O)c1ccc(/C=N/Nc2ncnc3c2cnn3-c2ccccn2)cc1 [Example 20, 4-{(E)-[(1-pyridin-2-yl-1H-pyrazolo[3,4-d]pyrimidin-4-yl)hydrazono]methyl}benzoic acid] |
| 100 to 1000 nM | CN(C)CCNC(=O)c1ccc(/C=N/Nc2ncnc3c2cnn3-c2ccccn2)cc1 [Example 21, N-[2-(Dimethylamino)ethyl]-4-{(E)-[(1-pyridin-2-yl-1H-pyrazolo[3,4-d]pyrimidin-4-yl)hydrazono]methyl}benzamide hydrochloride] |
| 100 to 1000 nM | CN(C)CCNS(=O)(=O)c1ccc(/C=N/Nc2ncnc3c2cnn3-c2ccccn2)cc1 [Example 19, N-[2-(Dimethylamino)ethyl]-4-{(E)-[(1-pyridin-2-yl-1H-pyrazolo[3,4-d]pyrimidin-4-yl)hydrazono]methyl}benzenesulfonamide] |
| < 100 nM | COc1cccc(-n2ncc3c(N/N=C/c4ccc(Cl)nc4)ncnc32)n1 [Example 5, 6-Chloronicotinaldehyde [1-(6-methoxypyridin-2-yl)-1H-pyrazolo[3,4-d]pyrimidin-4-yl]hydrazone] |
| < 100 nM | CS(=O)(=O)c1ccc(/C=N/Nc2ncnc3c2cnn3-c2cccc3[nH]cnc23)cc1 [Example 30, 4-(Methylsulfonyl)benzaldehyde [1-(1H-benzimidazol-4-yl)-1H-pyrazolo[3,4-d]pyrimidin-4-yl]hydrazone] |
| 100 to 1000 nM | CS(=O)(=O)CCNC(=O)c1ccc(/C=N/Nc2ncnc3c2cnn3-c2ccccn2)cc1 [Example 22, N-[2-(Methylsulfonyl)ethyl]-4-{(E)-[(1-pyridin-2-yl-1H-pyrazolo[3,4-d]pyrimidin-4-yl)hydrazono]methyl}benzamide] |
| 1000 to 10000 nM | CN(C)c1ccc(/C=N/Nc2ncnc3c2cnn3-c2ccccn2)cn1 [Example 18, 6-(Dimethylamino)nicotinaldehyde (1-pyridin-2-yl-1H-pyrazolo[3,4-d]pyrimidin-4-yl)hydrazone] |
| 100 to 1000 nM | C(=N\Nc1ncnc2c1cnn2-c1ccccn1)/c1cccnc1 [Example 13, Nicotinaldehyde (1-pyridin-2-yl-1H-pyrazolo[3,4-d]pyrimidin-4-yl)hydrazone] |

| IC50 | Compound |
| --- | --- |
| < 100 nM | COc1cccc(-n2ncc3c(N/N=C/c4cccnc4)ncnc32)n1 [Example 2, Nicotinaldehyde [1-(6-methoxypyridin-2-yl)-1H-pyrazolo[3,4-d]pyrimidin-4-yl]hydrazone] |
| < 100 nM | COc1cccc(-n2ncc3c(N/N=C/c4ccc(C(=O)NCCS(C)(=O)=O)cc4)ncnc32)n1 [Example 9, 4-((E)-{[1-(6-methoxypyridin-2-yl)-1H-pyrazolo[3,4-d]pyrimidin-4-yl]hydrazono}methyl)-N-[2-(methylsulfonyl)ethyl]benzamide] |
| < 100 nM | C(=N\Nc1ncnc2c1cnn2-c1ccncc1)/c1ccncc1 [Example 26, Isonicotinaldehyde (1-pyridin-4-yl-1H-pyrazolo[3,4-d]pyrimidin-4-yl)hydrazone] |
| < 100 nM | Fc1ccc(/C=N/Nc2ncnc3c2cnn3-c2cccc3[nH]cnc23)cc1 [Example 29, 4-Fluorobenzaldehyde [1-(1H-benzimidazol-4-yl)-1H-pyrazolo[3,4-d]pyrimidin-4-yl]hydrazone] |
| < 100 nM | C(=NNc1ncnc2c1cnn2-c1cccc2[nH]cnc12)c1ccncc1 [Example 28, Isonicotinaldehyde [1-(1H-benzimidazol-4-yl)-1H-pyrazolo[3,4-d]pyrimidin-4-yl]hydrazone] |
| < 100 nM | Fc1ccc(/C=N/Nc2ncnc3c2cnn3-c2cccnc2)cc1 [Example 33, 4-Fluorobenzaldehyde (1-pyridin-3-yl-1H-pyrazolo[3,4-d]pyrimidin-4-yl)hydrazone] |
| < 100 nM | COc1cccc(-n2ncc3c(N/N=C/c4ccc(C(=O)NCCCN5CCCC5)cc4)ncnc32)n1 [Example 12, 4-((E)-{[1-(6-methoxypyridin-2-yl)-1H-pyrazolo[3,4-d]pyrimidin-4-yl]hydrazono}methyl)-N-(3-pyrrolidin-1-ylpropyl)benzamide] |
| < 100 nM | O=C(O)c1ccc(/C=N/Nc2ncnc3c2cnn3-c2cccc3[nH]cnc23)cc1 [Example 31, 4-((E)-{[1-(1H-benzimidazol-4-yl)-1H-pyrazolo[3,4-d]pyrimidin-4-yl]hydrazono}methyl)benzoic acid] |
| < 100 nM | COc1cccc(-n2ncc3c(N/N=C/c4ccncc4)ncnc32)n1 [Example 1, Isonicotinaldehyde [1-(6-methoxypyridin-2-yl)-1H-pyrazolo[3,4-d]pyrimidin-4-yl]hydrazone] |
| < 100 nM | COc1cccc(-n2ncc3c(N/N=C/c4ccc(S(=O)(=O)NCCN5CCOCC5)cc4)ncnc32)n1 [Example 7, 4-((E)-{[1-(6-methoxypyridin-2-yl)-1H-pyrazolo[3,4-]pyrimidin-4-yl]hydrazono}methyl)-N-(2-morpholin-4-ylethyl)benzenesulfonamide] |
| < 100 nM | C(=NNc1ncnc2c1cnn2-c1nccs1)c1ccncc1 [Example 24, Isonicotinaldehyde [1-(1,3-thiazol-2-yl)-1H-pyrazolo[3,4-d]pyrimidin-4-yl]hydrazone] |
| < 100 nM | COc1cccc(-n2ncc3c(N/N=C/c4ccc(S(=O)(=O)NCCN(C)C)cc4)ncnc32)n1 [Example 6, N-[2-(Dimethylamino)ethyl]-4-((E)-{[1-(6-methoxypyridin-2-yl)-1H-pyrazolo[3,4-d]pyrimidin-4-yl]hydrazono}methyl)benzenesulfonamide] |
| < 100 nM | CN(C)CCNS(=O)(=O)c1ccc(/C=N/Nc2ncnc3c2cnn3-c2nccs2)cc1 [Example 25, N-[2-(Dimethylamino)ethyl]-4-((E)-{[1-(1,3-thiazol-2-yl)-1H-pyrazolo[3,4-a]pyrimidin-4-yl]hydrazonol}methyl)benzenesulfonamide] |
| 1000 to 10000 nM | CC(C)(C)OC(=O)N1CCC(/C=N/Nc2ncnc3c2cnn3-c2ccccn2)CC1 [Example 15, tert-Butyl 4-{(E)-[(1-pyridin-2-yl-1H-pyrazolo[3,4-d]pyrimidin-4-yl)hydrazono]methyl}piperidine-1-carboxylate] |
| 100 to 1000 nM | COc1cccc(-n2ncc3c(N/N=C/c4ccc(N(C)C)nc4)ncnc32)n1 [Example 3, 6-(Dimethylamino)nicotinaldehyde [1-(6-methoxypyridin-2-yl)-1H-pyrazolo[3,4-d]pyrimidin-4-yl]hydrazone] |
